Assay results published in patent publication US8815880B2, “Crystal of tricyclic pyrazolopyrimidine derivative” (Daiichi Sankyo Company, Limited, priority 2010, dated 2014).

What was measured:
[1] = Purity test and stability test (accelerated test, HPLC related substances); type: physicochemical; conditions: monohydrochloride
Protocol: Purity Test and Stability Test
• Condition 1: 40° C., humidity: 75% • Condition 2: 60° C. (without humidity control)
Samples under the aforementioned accelerated test conditions were measured by high performance liquid chromatography as described below.
An analyte for the accelerated test was dissolved in the sample-dissolved solution to prepare an approximately 0.5 g/L solution.
• Column: YMC-Pack Pro C18RS, 3.0 mm ID×150 mm, particle diameter: 3 μm • Column temperature: approximately 40° C. • Gradient conditions:
45 to 55 minutes, mobile phase A: 0/mobile phase B: 100 • Flow rate: 0.7 ml/min • Measurement range: 0 to 55 minutes • Detection wavelength: 240 nm • Amount of sample solution injected: 5 μl <Calculation> • 1) The sample solution was injected into the column, so as to obtain the peak area (A) of each related substance and the peak area (T) of compound (1). • 2) The sample-dissolved solution was injected into the column, so as to obtain the peak area (B) of each blank. • 3) The amount [%] of each related substance was calculated using the formula: The amount [%] of each related substance=100×(A−B)÷T <Measurement Results>

[2] = test system: human breast cancer cell line SK-BR-3; assay: Cell growth inhibition assay (MTT), SK-BR-3; type: cell-based; conditions: SK-BR-3 cells, 72 hours, read-out: GI50 value (50% growth inhibitory concentration)
Protocol: (§1) A cell growth inhibition assay was performed using two types of cells (human breast cancer cell line SK-BR-3 and human lung cancer cell line NCI-H460).
(§2) Cells of each type were suspended in a medium and seeded into a 96-well multi-well plate at 2000 cells/150 μL/well in the case of SK-BR-3 and at 500 cells/150 μL/well in the case of NCI-H460. Compound (1) was dissolved in DMSO, and this was diluted with medium to prepare a sample solution (DMSO concentration: 0.5% or less). On the day following the seeding, 50 μL of DMSO-containing medium to which the test compound was not added (hereinafter called DMSO diluted solution; DMSO concentration: 0.5% or less) or 50 μL of the sample solution was further added to the cells. An MTT assay was performed immediately after and 72 hours after adding the sample solution or the DMSO diluted solution to the cells. The MTT assay was performed as follows.
(§3) 5 mg/mL of an MTT (3-(4,5-dimethylthiazol-2-yl)-2,5-diphenyltetrazolium bromide) solution was added at 20 μL per well. Thereafter, the plate was incubated at 37° C. in 5% CO2 for four hours. The plate was centrifuged at 1200 rpm for five minutes, and then the culture supernatant was removed by suction using a dispenser. DMSO was added at 150 μL per well, and the generated formazan was dissolved. […] The absorbance of each well was measured using a plate reader at an OD of 540 nm with a reference of 660 nm. […]

[3] = test system: human lung cancer cell line NCI-H460; assay: Cell growth inhibition assay (MTT), NCI-H460; type: cell-based; conditions: NCI-H460 cells, 72 hours, read-out: GI50 value (50% growth inhibitory concentration)
Protocol: as §1, §2, §3

[4] = Accelerated condition 1: 40° C., humidity 75%, 2 weeks
[5] = Accelerated condition 1: 40° C., humidity 75%, 4 weeks
[6] = Accelerated condition 2: 60° C. (without humidity control), 2 weeks
[7] = Accelerated condition 2: 60° C. (without humidity control), 4 weeks
[8] = Purity test (Initial), before accelerated test

| Structure (SMILES) | Impurity (rrt 0.43) amount [1, 4] [%] | Impurity: Total of unspecified [1, 4] [%] | Impurity (rrt 0.43) amount [1, 5] [%] | Impurity: Total of unspecified [1, 5] [%] | Impurity (rrt 0.43) amount [1, 6] [%] | Impurity: Total of unspecified [1, 6] [%] | Impurity (rrt 0.43) amount [1, 7] [%] | Impurity: Total of unspecified [1, 7] [%] | Impurity (rrt 0.43) amount [1, 8] [%] | Impurity: Total of unspecified [1, 8] [%] | GI50 [2] [nM] | GI50 [3] [nM] |
| --- | --- | --- | --- | --- | --- | --- | --- | --- | --- | --- | --- | --- |
| CNC(=O)CC1=Cc2nn(Cc3ncc(C)c(OC)c3Cl)c3nc(N)nc(c23)SC1.Cl [Example 12, 2-{4-Amino-2-[(3-chloro-4-methoxy-5-methylpyridin-2-yl)methyl]-2,7-dihydro-6-thia-1,2,3,5-tetraazabenzo[cd]azulen-8-yl}-N-methylacetamide monohydrochloride] | 0.30 | 1.08 | 0.33 | 1.09 | 0.32 | 1.20 | 0.33 | 1.20 | 0.27 | 1.00 |  |  |
| CNC(=O)CC1=Cc2nn(Cc3ncc(C)c(OC)c3Cl)c3nc(N)nc(c23)SC1.Cl [Example 28, 2-{4-Amino-2-[(3-chloro-4-methoxy-5-methylpyridin-2-yl)methyl]-2,7-dihydro-6-thia-1,2,3,5-tetraazabenzo[cd]azulen-8-yl}-N-methylacetamide monohydrochloride] | 0.41 | 1.14 | 0.44 | 1.12 | 0.44 | 1.25 | 0.45 | 1.18 | 0.37 | 1.07 |  |  |
| CNC(=O)CC1=Cc2nn(Cc3ncc(C)c(OC)c3Cl)c3nc(N)nc(c23)SC1.Cl [Example 4, 2-{4-Amino-2-[(3-chloro-4-methoxy-5-methylpyridin-2-yl)methyl]-2,7-dihydro-6-thia-1,2,3,5-tetraazabenzo[cd]azulen-8-yl}-N-methylacetamide monohydrochloride] | 0.94 | 1.83 | 1.04 | 2.08 | 1.09 | 2.31 | 1.21 | 2.42 | 0.75 | 1.64 |  |  |
| CNC(=O)CC1=Cc2nn(Cc3ncc(C)c(OC)c3Cl)c3nc(N)nc(c23)SC1 [Compound (1), 2-{4-amino-2-[(3-chloro-4-methoxy-5-methylpyridin-2-yl)methyl]-2,7-dihydro-6-thia-1,2,3,5-tetraazabenzo[cd]azulen-8-yl}-N-methylacetamide] |  |  |  |  |  |  |  |  |  |  | 13 | 26 |
